Measured values taken from ChEMBL document CHEMBL1124435, “Evaluation of glycolamide esters and various other esters of aspirin as true aspirin prodrugs” (J Med Chem, 1989).
Values after ≈ are worked out from the molar mass of the structure shown.

Tests used:
[1] = Observed pseudo-first order rate constant
[2] = Observed second order rate constant
Homo sapiens [3] = species: Homo sapiens; assay: Percentage of aspirin formed during hydrolysis in 10% human plasma at pH 7.4 at 37 degrees celsius
in vitro [4] = conditions: human, 10% human plasma
[5] = (§1) Observed first order rate constant
Homo sapiens [6] = species: Homo sapiens; assay: Percentage of aspirin formed during hydrolysis in undiluted human plasma at pH 7.4 at 37 degrees celsius
[7] = Partition coefficient (logP); conditions: octanol/water
[8] = as §1; type: ADME
in vitro [9] = conditions: human, 10% human plasma, pH 7.4
Description: Michaelis-Menten constant(Km) for hydrolysis in 10% human plasma(pH 7.4) at 37 degrees celsius

Row | SMILES | K obs [1] | K2 [2] | Aspirin formed (Homo sapiens [3]) | half-life (in vitro [4]) | K1 [5] | Aspirin formed (Homo sapiens [6]) | logP [7] | solubility (physchem) | 10E2 K1 [8] | Km (in vitro [9])
1 | CC(=O)Oc1ccccc1C(=O)OCC(=O)N(C1CCCCC1)C1CCCCC1 | 0.0335 min⁻¹ | 0.0335 min⁻¹ | 0% | 20.7 min | – | – | – | – | – | –
2 | CC(=O)Oc1ccccc1C(=O)OCC(=O)N(C(C)C)C(C)C | 0.0462 min⁻¹ | 0.037 min⁻¹ | 20% | 15 min | 0.0092 min⁻¹ | 21% | 2.03 | – | – | –
3 | CC(=O)OCOC(=O)c1ccccc1OC(C)=O | 0.395 min⁻¹ | 0.28 min⁻¹ | 29% | 1.8 min | 0.115 min⁻¹ | 28% | 1.42 | 2430 µg/mL (≈ 9.63 mM) | – | –
4 | CCCC(=O)OCOC(=O)c1ccccc1OC(C)=O | 0.723 min⁻¹ | 0.723 min⁻¹ | 0% | 1 min | – | – | – | 350 µg/mL (≈ 1.25 mM) | – | –
5 | CC(=O)Oc1ccccc1C(=O)OCC(=O)N(C)CC(N)=O | 0.0924 min⁻¹ | 0.0582 min⁻¹ | 37% | 7.5 min | – | – | -0.46 | – | 3.42 min⁻¹ | 380 µM
6 | CC(=O)Nc1ccc(OC(=O)c2ccccc2OC(C)=O)cc1 [BENORILATE] | 0.487 min⁻¹ | 0.487 min⁻¹ | 0% | 1.4 min | – | – | 2.15 | 20 µg/mL (≈ 0.0638 mM) | – | –
7 | CC(=O)Oc1ccccc1C(=O)Oc1ccccc1C(=O)O [DIPLOSALSALATE] | 0.0094 min⁻¹ | 0.0094 min⁻¹ | 0% | 73.7 min | – | – | – | – | – | –
8 | CCOC(=O)CNC(=O)COC(=O)c1ccccc1OC(C)=O | 0.212 min⁻¹ | 0.212 min⁻¹ | 0% | 3.3 min | – | – | 0.99 | 4320 µg/mL (≈ 13.4 mM) | – | –
9 | CC(=O)Oc1ccccc1C(=O)OCCN(C)C(C)=O | 0.205 min⁻¹ | 0.205 min⁻¹ | 0% | 3.4 min | – | – | – | – | – | –
10 | CSCOC(=O)c1ccccc1OC(C)=O | 0.465 min⁻¹ | 0.465 min⁻¹ | 0% | 1.5 min | – | – | 1.94 | 550 µg/mL (≈ 2.29 mM) | – | –
11 | CCOC(=O)CN(C)C(=O)COC(=O)c1ccccc1OC(C)=O | 0.34 min⁻¹ | 0.34 min⁻¹ | 0% | 2 min | – | – | 1.67 | 960 µg/mL (≈ 2.85 mM) | – | –
12 | CC(=O)Oc1ccccc1C(=O)OCC(=O)N(C)CCO | 0.184 min⁻¹ | 0.114 min⁻¹ | 38% | 3.8 min | 0.0699 min⁻¹ | 40% | 0.06 | – | – | –
13 | COC(=O)c1ccccc1OC(C)=O | 0.214 min⁻¹ | 0.214 min⁻¹ | 0% | 3.2 min | – | – | 1.46 | 2810 µg/mL (≈ 14.5 mM) | – | –
14 | CC(=O)Oc1ccccc1C(=O)OC[S+](C)[O-] (configuration not stated) | 0.207 min⁻¹ | 0.145 min⁻¹ | 30% | 3.3 min | 0.0621 min⁻¹ | 31% | 0.11 | 4230 µg/mL (≈ 16.5 mM) | – | –
15 | CC(=O)Oc1ccccc1C(=O)OCC(=O)NCC(N)=O | 0.136 min⁻¹ | 0.136 min⁻¹ | 0% | 5.1 min | – | – | -0.43 | – | – | –
16 | CC(=O)Oc1ccccc1C(=O)OCC(=O)N(C)C | 0.209 min⁻¹ | 0.105 min⁻¹ | 50% | 3.3 min | 0.105 min⁻¹ | 49% | 0.38 | – | – | 196 µM
17 | CC(=O)Oc1ccccc1C(=O)Oc1ccccc1 | 0.53 min⁻¹ | 0.53 min⁻¹ | 0% | 1.3 min | – | – | 2.88 | 20 µg/mL (≈ 0.078 mM) | – | –
18 | CCNC(=O)COC(=O)c1ccccc1OC(C)=O | 0.26 min⁻¹ | 0.26 min⁻¹ | 0% | 2.7 min | – | – | 0.9 | 5520 µg/mL (≈ 20.8 mM) | – | –
19 | CC(=O)Oc1ccccc1C(=O)OCCN(C)C.Cl | 2.65 min⁻¹ | 2.49 min⁻¹ | 6% | 0.26 min | 0.159 min⁻¹ | 8% | – | > 200000 µg/mL | – | 49 µM
20 | CCOC(=O)COC(=O)c1ccccc1OC(C)=O | 0.315 min⁻¹ | 0.315 min⁻¹ | 0% | 2.2 min | – | – | 1.67 | – | – | –
